{
  "source": "patent US20090054403A1",
  "about": "“Treatment of Post-Traumatic Stress Disorder” (priority 2007, published 2009)",
  "key": {"serum T3 and T4 levels": {"test_system": "serum T3 and T4 levels", "assay": "Thyroid function (serum T3, T4) in iodine-deficient rats, 10 days", "format": "in vivo, Sprague-Dawley rats", "conditions": "for effect on serum T3 and T4 levels: nepicastat 2.0 and 6.2 mg/kg b.i.d., methimazole 1 mg/kg b.i.d., po, 10 days", "method": "Male Sprague-Dawley rats, weighing 180-200 grams, were fed an iodine deficient diet (Purina, 5891C, Lot 1478, 0.066±0.042 mg iodine/kg sample) ad libitum 14 days prior to treatment. Animals were weighed and randomly assigned to one of the following treatment groups (n=12 per group): Nepicastat at 2.0 mg/kg, Nepicastat at 6.2 mg/kg, R, Methimazole at 1 mg/kg, or vehicle at 1 ml/kg. Each group of rats was dosed orally in the evening and the following morning, approximately 12 hours apart, for 10 consecutive days.\nOrbital blood samples were taken at day—3, 0, 3, 7, and 9 (day 0 was the first day of dosing). Serum samples were analyzed for T3 and T4 levels using a radioimmunoassay.\nTo statistically evaluate changes in T3 and T4 levels, a change from baseline was calculated from the day-3 time point. A non-parametric two-way within subject analysis of variance (ANOVA) was conducted. Also a one-way ANOVA was performed to detect if a significant difference from control occurred. Pairwise analyses between controls and each treatment group were carried out using Fisher's LSD strategy to control the experiment-wise error rate. For statistical analysis of catecholamine levels, a one-way ANOVA with factor DOSE was performed. Pairwise analyses between treated and controls at each dose were carried out using Fisher's LSD strategy to control the experiment-wise error rate."}, "[1]": {"test_system": "mean arterial pressure and heart rate", "assay": "Heart rate and mean arterial pressure in restrained SHR with SCH-23390 pretreatment", "format": "in vivo, spontaneous hypertensive rats", "conditions": "200 μg/kg iv, 15 min post-iv period", "description": "Male, spontaneous hypertensive rats (280-345 g; Charles River Labs, Kingston, N.Y.) were fasted overnight then anesthetized with ether. A femoral artery and femoral vein were cannulated with PE50 tubing for recording of blood pressure and administration of compounds, respectively. Animals were then placed in MAYO restrainers and their feet loosely taped to the restrainer. Heparinized saline (50 units sodium heparin/ml) was used to maintain patency of each cannula throughout the experiment. The following parameters were continuously recorded using Modular Instruments MI^2 BioReport™ software installed on an IBM personal computer: mean arterial pressure (MAP), heart rate (HR), and the change from baseline for each parameter at specified time points in the experiment.\nAll compounds were dissolved on the day of use. nepicastat was dissolved in deionized water (vehicle) to a free base concentration of 1 mg/ml. Oral dosing volume for nepicastat or vehicle was 10 ml/kg. SCH-23390 was dissolved in saline (vehicle) to a free base concentration of 0.2 mg/ml. […] or saline were administered intravenously as a bolus in a volume of 1.0 ml/kg followed by 0.2 ml flush of isotonic saline.\nFollowing surgical preparation, each animal was allowed a minimum one hour recovery period. Animals were randomly assigned to four treatment groups: vehicle (iv)/vehicle (po); vehicle (iv)/nepicastat (po); SCH-23390 (iv)/vehicle (po); or SCH-23390 (iv)/nepicastat (po). Once animals were stabilized (minimum one hour), baseline blood pressure and heart rate was determined by taking an average of each parameter over a 15 min period of time. Once baseline blood pressure and heart rate were established, animals were dosed intravenously with either SCH-23390 (200 μg/kg) or vehicle (saline, 1 ml/kg). Fifteen minutes later, animals were orally dosed with either nepicastat (10 mg/kg) or vehicle (deionized water, 10 ml/kg).\nRecorded parameters were measured 15 min prior to intravenous dosing to establish baseline blood pressure and heart rate. Recorded parameters were then measured at 5, 10, and 15 min following intravenous administration of SCH-23390 or vehicle. Following oral administration of nepicastat or vehicle, recorded parameters were measured at 15, 30, 60, 90, 120, 150, 180, 210, and 240 min.\nAt the end of the experiment, each animal was anesthetized with halothane and euthanized via decapitation. The cortex, left ventricle (apex), and mesenteric artery were dissected out, weighed, and fixed in 0.4 M perchloric acid. […] Blood pressure and heart rate were analyzed separately. The change from baseline for blood pressure and heart rate were analyzed by an analysis of variance (ANOVA) with effects for treatment, time, and their interaction. […]"}, "blood pressure": {"test_system": "blood pressure", "assay": "Radio-telemetry blood pressure in SHR, up to 30 days", "format": "in vivo", "conditions": "1 mg/kg, p.o."}, "[2]": {"assay": "Plasma levels of nepicastat and N-acetyl metabolite in dogs, 2 mg/kg b.i.d.", "format": "in vivo, beagle dogs", "conditions": "after nepicastat 2 mg/kg bid, any of the days", "method": "Male Beagle dogs (Marshall farms, North Rose, N.Y.) weighing between 9-16 kg were used in the study. The animals were allowed water ad libitum and given food once daily at ˜10.00 AM. Animals were randomly assigned to one of the following treatment groups (n=8/group): placebo (empty capsule), or nepicastat at 2 mg/kg b.i.d (4 mg/kg/day). Each animal received 2 doses daily, morning and afternoon (8-10 hours apart). Daily blood samples (10 ml) were drawn 6 h after the AM dose for measurement of plasma levels of nepicastat and catecholamines. The blood was collected in tubes containing heparin and glutathione and centrifuged at −4° C. within 1 h of collection. The plasma was separated and divided into two samples, one for the measurement of plasma catecholamines and the other for analysis of nepicastat.\nPlasma NE, DA and EPI were anaylysed by HPLC using electrochemical detection. Plasma concentration of nepicastat was determined by HPLC using electrochemical detection."}, "parkinsonian symptoms": {"test_system": "parkinsonian symptoms", "assay": "Parkinsonian clinical rating scale (CRS) in MPTP-lesioned monkeys", "format": "in vivo, squirrel monkeys (Saimiri sciureus)", "method": "A total of 24 squirrel monkeys (Saimiri sciureus), fourteen females and ten males were used in this study. The twenty-four animals were randomly assigned to one of four treatment groups, with 6 animals per group. The groups consisted of the following (1) group A: placebo (2) group B: 1 mg/kg/day; (3) group C: 4 mg/kg/day; and (4) group D: 10 mg/kg/day. In Group B, one animal died acutely following MPTP-lesioning, and was not replaced.\nAnimals were lesioned by the administration of MPTP at a concentration of 2.0 mg/kg (free-base) via subcutaneous injection to achieve a parkinsonian state (see FIGS. 151-156). A post-MPTP lesioning behavioral assessment was carried out 2 to 4 weeks after the last MPTP-Iesioning. Locomotor activity was monitored by IRAM in 60-minute sessions for 3 to 5 days. Clinical behavior (CAS) was assessed by one to three individuals rating over a period of 3 to 5 days.\nAnimals were tested for response to L-Dopa and the efficacy of drug nepicastat. Testing was carried out 4 to 12 weeks after the last MPTP dose. Twenty-tour squirrel monkeys were randomly assigned to 4 groups; Group A (6 animals) received placebo (water) treatment; Group B (5 animals) received drug nepicastat at 1 mg/kg/day (0.5 mg/kg twice daily); Group C (6 animals) received 4 mg/kg/day (2 mg/kg twice daily); and Group D (6 animals) received 10 mg/kg/day (5 mg/kg twice daily).\nL-Dopa was administered at a concentration of either 2.5, 5, or 7.5 mg/kg by oral gavage twice daily (at 10 am and 2 pm) for 7 consecutive days. Behavior was determined by IRAM and CRS. Clinical rating was carried out 60 to 90 minutes following the 10 am morning dose on the last 4 days of treatment. Raters (one to three individuals) were blinded to the different treatment groups. IRAM assessment were preformed for 90 minutes immediately following drug administration at 2 pm on the last 2 to 5 days of drug treatment. There was a minimum 2 day washout period between each treatment dose.\nDrug nepicastat or water (as placebo) was administered for 12 days following a minimum 2 day washout after L-Dopa dosing. Drug was administered twice daily at 10 am and 2 pm by oral gavage. Behavior was rated by IRAM and CRS. The CRS was conducted in the morning, 60 to 90 minutes after the 10 am dose of nepicastat on the last 5 days of drug treatment. Raters (one to three individuals) were blinded to the different treatment groups. IRAM assessments were preformed for 90 minutes immediately following drug administration at 2 pm on the last 5 days of drug treatment.\nEight parkinsonian features were rated in each animal and the total score was derived from the sum of these eight features. […]"}, "[3]": {"test_system": "blood pressure, heart rate, motor activity", "assay": "Radio-telemetry blood pressure, heart rate, motor activity in normotensive rats, 7 days", "format": "in vivo, normotensive Wistar rats (Crl:COBS(WI)BR)", "conditions": "10 mg/kg po", "method": "Male Crl:COBS(WI)BR rats of 15 weeks old were used. Twenty-four rats were chronically implanted with telemetry implants (TA11PA-C40, Data Sciences, Inc., St. Paul, Minn.) for measurement of arterial blood pressure, heart rate and motor activity. The rat was anesthetized with pentobarbital sodium (60 mg/kg, ip) and its abdomen shaved. Under aseptic conditions, an incision was made on midline. The abdominal aorta was exposed, and cannulated with the catheter of a telemetry transmitter unit. After the transmitter was sutured to the abdominal musculature, the skin was closed. Each rat was allowed to recover for at least 2 weeks before being subjected to drug administration. Three days prior to the start of the experiment, the rats were randomly divided into 4 treatment groups: Vehicle (p.o.), Hydralazine (10 mg/kg, p.o.), nepicastat (30 mg/kg, p.o.), nepicastat (100 mg/kg, p.o.).\nSystolic blood pressure (SBP), diastolic blood pressure (DBP), mean blood pressure (MBP), heart rate (HR), and motor activity (MA) were monitored. After the pre-dose values for these parameters were established, respective groups of rats received a 7 day daily treatment of vehicle, nepicastat or hydralazine.\nBoth nepicastat and hydralazine were prepared in water with traces of Tween 80. All doses were given orally to the rat in 10 ml/kg and were expressed as free base equivalents.\nA computerized data collection system was used to continuously collect data on SBP, DBP, MBP, HR, and MA. Data on each rat were collected every 5 min. for 10 sec. These were then averaged hourly and standard errors of the mean (SE) calculated. In this report, only data on MBP, HR and MA were presented. […] Body weights were recorded daily."}},
  "note": "“Also recorded” adds a separate entry of the source.",
  "data": [
    {"smiles": "Cn1cc[nH]c1=S", "note": "[Methimazole, methimazole]", "values": [
      {"measurement": "reduction in serum levels of T3", "setting": "serum T3 and T4 levels; day 3, 4 h post-dose", "result": 31, "unit": "%"},
      {"measurement": "reduction in serum levels of T4", "setting": "serum T3 and T4 levels; day 3, 4 h post-dose", "result": 46, "unit": "%"},
      {"measurement": "reduction in serum levels of T3", "setting": "serum T3 and T4 levels; day 7, 4 h post-dose", "result": 42, "unit": "%"},
      {"measurement": "reduction in serum levels of T4", "setting": "serum T3 and T4 levels; day 7, 4 h post-dose", "result": 58, "unit": "%"},
      {"measurement": "reduction in serum levels of T3", "setting": "serum T3 and T4 levels; day 9, 4 h post-dose", "result": 44, "unit": "%"},
      {"measurement": "T4 levels vs vehicle", "setting": "serum T3 and T4 levels; day nine", "result": "only marginally (p<0.10) lower"},
      {"measurement": "effect on serum T3 and T4 levels", "setting": "serum T3 and T4 levels", "result": "significantly (p<0.05) lowered T3 levels on all treatment days"},
      {"measurement": "effect on serum T3 and T4 levels", "setting": "serum T3 and T4 levels; listed as methimazole", "result": "significantly reduced"}
    ]},
    {"smiles": "CN1CCc2cc(Cl)c(O)cc2[C@@H](c2ccccc2)C1", "note": "[SCH-23390, reference compound]", "values": [
      {"measurement": "decrease in mean arterial pressure", "setting": "[1]", "result": "5±1", "unit": "mmHg"}
    ]},
    {"smiles": "CCOC(=O)[C@H](CCc1ccccc1)N[C@@H](C)C(=O)N1CCC[C@H]1C(=O)O", "note": "[enalapril, reference compound]", "values": [
      {"measurement": "effect on blood pressure, enalapril alone", "setting": "blood pressure", "result": "failed to lower blood pressure"},
      {"measurement": "reduction in left ventricular mass, enalapril alone", "setting": "blood pressure", "result": "did not occur"}
    ]},
    {"smiles": "CC(=O)NCc1c[nH]c(=S)n1[C@H]1CCc2c(F)cc(F)cc2C1", "note": "[N-acetyl metabolite of nepicastat]", "values": [
      {"measurement": "plasma levels of the N-acetyl metabolite", "setting": "[2]", "result": "No significant levels"}
    ]},
    {"smiles": "N[C@@H](Cc1ccc(O)c(O)c1)C(=O)O", "note": "[L-Dopa, reference compound]", "values": [
      {"measurement": "CRS / parkinsonian symptoms compared to post-MPTP (pre-treatment) state", "setting": "parkinsonian symptoms; L-Dopa 2.5 mg/kg", "result": "No groups of animals demonstrated significant improvement; also recorded: no significant effect"},
      {"measurement": "CRS / parkinsonian symptoms compared to post-MPTP (pre-treatment) state", "setting": "parkinsonian symptoms; L-Dopa 5 and 7.5 mg/kg, except Group B at 5 and Group C at 7.5 mg/kg", "result": "significant improvement; also recorded: significant effect"}
    ]},
    {"smiles": "NNc1nncc2ccccc12", "note": "[Hydralazine, reference compound]", "values": [
      {"measurement": "time in which hypotensive effect subsided", "setting": "[3]", "result": 10, "unit": "h"},
      {"measurement": "maximal decrease in MBP", "setting": "[3]; within 1 hr after dosing on day 1", "result": "−24", "unit": "mmHg"}
    ]}
  ]
}
